Values quoted from earlier work in patent publication US20030083286A1, “Bioadhesive compositions and methods for enhanced intestinal drug absorption” (priority 2001, published 2003).
Where two headings read alike, the source gives them in different places. In the oligonucleotide strings, read from the 5' end, every base follows the letter of its sugar. An asterisk marks phosphorothioate; unmarked linkages are phosphodiester. Other units and linkages are bracketed, terminal groups are in braces. A string of capitals states the bases alone. d = 2'-deoxy (DNA)

Columns and labels:
ICAM-1 [1] = details: C8161 human melanoma cells
ICAM-1 [2] = tested on: ICAM-1
[3] = not given; remark: listed apart in the source
[4] = tested on: ICAM-1 over HLA-A and HLA-B; details: versus HLA-A and HLA-B

Substance | ICAM-1 expression (mRNA levels, northern blot) (ICAM-1 [1]) | ICAM-1 expression (ICAM-1 [2]; human epidermal carcinoma cells (A431)) | ICAM-1 expression (ICAM-1 [2]; human keratinocytes) | ICAM-1 expression (ICAM-1 [2]; human lung carcinoma cells (A549)) | ICAM-1 expression (ICAM-1 [2]; human umbilical vein cells) | enhanced metastatic ability of C8161 cells resulting from TNF-α treatment (C8161 cells; TNF-α treated cells) | metastatic potential of C8161 cells (C8161 cells; in vivo) | anti-inflammatory effects in animal testing (Crohn's disease, rheumatoid arthritis, psoriasis, ulcerative colitis, kidney transplant rejection) | biological activity in animal models of inflammatory disease (in vivo) | activity against Crohn's disease in humans ([3]; humans) | steroid-sparing effect on treated subjects ([3]; humans, five months post-treatment weaned from steroids and in remission) | safety in humans ([3]; in vivo) | specificity for target ICAM-1 over other potential nucleic acid targets [4]
ISIS 1939: 2′-oligodeoxynucleotide, phosphorothioate backbone, 5′-CCC-CCA-CCA-CTT-CCC-CTC-TC-3′ (SEQ ID NO:2), targeted to 3′-UTR of human ICAM-1 gene (antisense CCCCCACCACTTCCCCTCTC; DNA, all phosphorothioate, methylation of C not given here) | markedly reduced ICAM-1 expression | – | – | – | – | – | – | – | – | – | – | – | –
ISIS 2302: 2′-deoxyoligonucleotide, phosphorothioate backbone, 5′-GCC-CAA-GCT-GGC-ATC-CGT-CA-3′ (SEQ ID NO:1), targeted to 3′-UTR of human ICAM-1 gene (antisense dG*dC*dC*dC*dA*dA*dG*dC*dT*dG*dG*dC*dA*dT*dC*dC*dG*dT*dC*dA) | markedly reduced ICAM-1 expression | inhibit ICAM-1 expression | inhibit ICAM-1 expression | inhibit ICAM-1 expression | inhibit ICAM-1 expression | eliminated the enhanced metastatic ability | decreased the metastatic potential | strong anti-inflammatory effects | significant biological activity | activity against Crohn's disease | statistically significant steroid-sparing effect | good safety | demonstrated specificity
